Test results reported in the OPERA property sets (Mansouri et al. 2018).
Peptide text beside a SMILES is read from it.

First: OCCN1CCN(CCC=C2c3ccccc3Sc3ccc(Cl)cc32)CC1
Second: Clc1ccc2ncccc2c1
The logP of the first is higher: 4.18 for the first, 2.73 for the second.

Going from CCSc1ccccc1 to FC(F)(F)Sc1ccccc1, the logP rises from 3.2 to 3.57.

Nc1ccc(C(=O)Oc2ccccc2Br)c(O)c1 and Nc1ccc(C(=O)Oc2ccc(Cl)cc2)c(O)c1 are within 0.2 log units of each other in logP: 3.74 for the first, 3.6 for the second.

Going from Nc1c(S(=O)(=O)O)ccc2ccccc12 to O=[N+]([O-])c1ccnc2ccccc12, the logP rises from -0.97 to 2.06.

Cc1ccc(Cl)cc1C and Cc1cccc(C)c1C are within 0.2 log units of each other in logP: 3.82 for the first, 3.66 for the second.

Compared with CCCCOc1cccnn1, CCCCOCCCC is higher in logP: 1.8 for the first, 3.21 for the second.

Going from O=C1CC(=O)NC(=O)N1 to CCC1C(=O)NC(=O)NC1=O, the logP rises from -1.47 to -0.35.

First: O=S(Cc1ccccc1)Cc1ccccc1
Second: C(=C\c1ccccc1)/c1ccccc1
The logP of the first is lower: 1.99 for the first, 4.81 for the second.

First: CCCCNC
Second: CCCCCNc1nc(NC)nc(SC(F)F)n1
The logP of the first is lower: 1.33 for the first, 4.42 for the second.

First: BrCCc1ccccc1
Second: ICCCc1ccccc1
The logP of the first is lower: 3.09 for the first, 3.9 for the second.

First: Clc1cc(Cl)c(-c2c(Cl)cc(Cl)cc2Cl)c(Cl)c1
Second: C=CC1(C)OC(=O)N(c2cc(Cl)cc(Cl)c2)C1=O (configuration not stated)
The logP of the first is higher: 7.55 for the first, 3.1 for the second.

First: CCCCCCCCCCCCOS(=O)(=O)[O-].[Na+]
Second: O=C(O)CCCCCN1C(=O)C=CC1=O
The logP of the first is higher: 1.6 for the first, 1.15 for the second.

Nc1ccccc1Cl and COc1ccc(N)cc1Cl are within 0.2 log units of each other in logP: 1.9 for the first, 1.85 for the second.

Going from C=CCNCC to CCNc1nc(NCC)nc(SC(F)F)n1, the logP rises from 0.81 to 3.28.

Compared with C#C, FC(F)(F)c1cccc2cccnc12 is higher in logP: 0.37 for the first, 2.5 for the second.

First: ClC1=C(Cl)C(Cl)(Cl)C(Cl)=C1Cl
Second: CC1=C(N2CC2)C(=O)C(Cl)=C(N2CC2)C1=O
The logP of the first is higher: 5.04 for the first, 1.2 for the second.

First: CC(C)(O)C(=O)O
Second: CC(=O)Nc1ccc(C(=O)O)cc1
The logP of the first is lower: -0.36 for the first, 1.31 for the second.

Compared with OCCc1ccncc1, NC(=O)CCCCc1ccncc1 is higher in logP: 0.1 for the first, 0.42 for the second.

Compared with CC12CCC(O)CC1CCC1C2CCC2(C)C(C3=CC(=O)OC3)C(O)CC12O (configuration not stated), CC(=O)OC1(C(=O)CO)CCC2C3CCC4=CC(=O)CCC4(C)C3C(=O)CC21C (configuration not stated) is higher in logP: 1.6 for the first, 2.45 for the second.

First: CNC(=O)Oc1ccccc1OC(C)C
Second: CC(C)Oc1ccccc1O
The logP of the first is lower: 1.52 for the first, 2.09 for the second.

COCc1ccccc1 and OCCCc1ccccc1 are within 0.2 log units of each other in logP: 1.92 for the first, 1.88 for the second.

First: Cc1cc2ccccc2[nH]1
Second: COC(=O)c1cnc2ccccc2c1
The logP of the first is higher: 2.53 for the first, 2.25 for the second.

Going from NC(Cc1ccc([N+](=O)[O-])cc1)C(=O)O (configuration not stated) to Cc1ccc([N+](=O)[O-])cc1N, the logP rises from -1.25 to 1.87.

First: C=C1C[C@]23C[C@@]1(O)CC[C@H]2[C@@]12C=C[C@H](O)[C@@](C)(C(=O)O1)[C@H]2[C@@H]3C(=O)O
Second: C=CCC1(C2C=CCC2)C(=O)NC(=O)NC1=O (configuration not stated)
The logP of the first is lower: 0.24 for the first, 1.51 for the second.

Compared with CN(C)CC(F)(F)F, FC(F)OC(Cl)C(F)(F)F (configuration not stated) is higher in logP: 1.06 for the first, 2.06 for the second.

Going from CC(=O)OCc1coc(Cc2ccccc2)c1 to COc1ccccc1C(C)=O, the logP falls from 3.24 to 1.82.

CC1=C(N2CC2)C(=O)C(CCO)=C(N2CC2)C1=O and C[C@@H]1C[C@@H]([C@H](O)CC2CC(=O)NC(=O)C2)C(=O)[C@@H](C)C1 are within 0.2 log units of each other in logP: 0.49 for the first, 0.55 for the second.

Compared with O=C1CC(Sc2ccccc2)N1 (configuration not stated), ClC(Cl)=Nc1ccccc1 is higher in logP: 1.58 for the first, 2.54 for the second.

Going from CCOC(=O)C(=Cc1ccccc1C)C(=O)OCC to CCN(CC)N=Nc1ccc(C(N)=O)cc1, the logP falls from 3.22 to 2.26.

Compared with CCC1OC(=O)C(C)C(OC2CC(C)(OC)C(O)C(C)O2)C(C)C(OC2OC(C)CC(N(C)C)C2O)C(C)(O)CC(C)C(=O)C(C)C(O)C1C (configuration not stated), NC(=O)[C@@H]1CCCN1C(=O)[C@H](Cc1cnc[nH]1)NC(=O)[C@@H]1CCC(=O)N1 is lower in logP: 3.12 for the first, -2.46 for the second.

Compared with CCNc1nc(NC(C)C)nc(SC(F)F)n1, CCC1(CC)C(=O)NC(=O)N(C(C)C)C1=O is lower in logP: 3.7 for the first, 2.36 for the second.

First: CNC(=O)Oc1cc(C)ccc1C(C)(C)C
Second: CNC(=O)Oc1ccc(Cl)cc1
The logP of the first is higher: 3.14 for the first, 2.01 for the second.

First: CC(C)C(=O)C(C)C
Second: CC[C@H](C)[C@H](NC(=O)[C@@H](NC(C)=O)[C@@H](C)O)C(N)=O (Ac-Thr-Ile-NH2)
The logP of the first is higher: 1.86 for the first, -0.86 for the second.

First: CC(=O)Nc1ccc(S(I)=C(N(C)C)N(C)C)cc1 (configuration not stated)
Second: CC(=O)c1ccc(C)cc1
The logP of the first is lower: -1.58 for the first, 2.1 for the second.

Going from FC(F)(F)c1ccc(C(F)(F)F)cc1 to NC(=O)c1ccc(O)cc1, the logP falls from 3.83 to 0.33.

Going from CC(=O)N[C@@H](Cc1ccc(O)cc1)C(=O)N[C@@H](CC(C)C)C(N)=O (Ac-Tyr-Leu-NH2) to CC(=O)N(C)N=Nc1ccc(C(N)=O)cc1, the logP rises from 0.32 to 1.37.

First: C1=CCCCC1
Second: Cn1c(=O)n(C)c2ccccc21
The logP of the first is higher: 2.86 for the first, 1.46 for the second.

First: CN1CC(=O)NC1=N
Second: Cc1cccc2ncc(-c3ccccc3)c(=O)n12
The logP of the first is lower: -1.76 for the first, 2.59 for the second.

Compared with c1ccc(-c2ccc3ccccc3n2)cc1, NC(=O)c1ccc(N)cc1 is lower in logP: 3.9 for the first, -0.41 for the second.

First: CSCS(=O)CC(CO)NC(=O)C=Cc1c(C)[nH]c(=O)[nH]c1=O (configuration not stated)
Second: CC(C)OC(=O)C(C(=O)OC(C)C)=C1SCCS1=O (configuration not stated)
The logP of the first is lower: -1.71 for the first, 1.6 for the second.

NC(=O)c1cc([N+](=O)[O-])cc([N+](=O)[O-])c1 and COc1ccc(Cl)nn1 are within 0.2 log units of each other in logP: 0.83 for the first, 0.89 for the second.
